Reference: patent US20200071316A1, “ACTIVATORS OF THE RETINOIC ACID INDUCIBLE GENE "RIG-I" PATHWAY AND METHODS OF USE THEREOF” (Kineta Immuno-Oncology LLC, priority 2018, published 2020)
Marks after values point to notes of the source that are not given here.

Assays:
[1] = system: THP1-Lucia ISG IRF3 −/− cells; test: IRF3-deficient THP1-Lucia ISG IRF3 −/− reporter assay (counter-screen); format: cell-based; conditions: Homo sapiens, 18 h after stimulation, read-out: THP1 ISG IRF3 −/−: fold increase of luciferase activity over background; for fold induction at 10 µM: 10 μM compound
Method: (§1) The promotor was comprised of five IFN-stimulated response elements (ISRE) fused to an ISG54 minimal promotor which is unresponsive to NF-kB or AP-1 pathways. […] The IRF3-deficient THP1-Lucia™ ISG IRF3 −/− reporter cell line was generated by CRISPR technology from the parent THP1-Lucia™ ISG reporter cell line.
(§2) 5 THP1-Lucia™ ISG cells and IRF3-deficient THP1-Lucia™ ISG IRF3 −/− cells were differentiated with PMA (100 ng/ml) and stimulated with compounds at the indicated concentrations (5 to 20 μM), positive control, or not treated (background). Luciferase secretion was quantified using the QUANTI-Luc luciferase assay system (InvivoGen) 18 h after stimulation. Data are shown as fold increase luciferase activity over background in Table 7 and represent the IRF3-dependent ISG54 promotor activity by the THP1-Lucia™ ISG cells in response to compounds. […] The fold increase of compounds (10 μM, *20 μM, **5 μM) induced IRF3 dependent luciferase activity is indicated as follows: “−” indicates less than 2.4 fold increase; “+” indicates a 2.4-4.9 fold increase; “++” indicates a 5-9.9 fold increase; “+++” indicates a 10-19 fold increase; “++++” indicates a 20-39 fold increase; “+++++” indicates greater than or equal to 40 fold increase.

[2] = system: IRF3 signaling pathway (IRF-inducible ISG54 promotor) in THP1-Lucia ISG cells; test: THP1-Lucia ISG reporter assay: induction of IRF3-dependent luciferase activity; format: cell-based; conditions: Homo sapiens, PMA-differentiated cells, 18 h after stimulation, read-out: THP1 ISG: fold increase of IRF3-dependent luciferase activity over background; for fold induction at 10 µM: 10 μM compound
Method: The compounds were evaluated in the THP1-Lucia™ ISG (interferon stimulated genes) reporter assay to determine if the compounds activate the IRF3 signaling pathway. The THP1-Lucia™ cells (InvivoGen) express the secreted luciferase (Lucia) reporter gene under the control of an IRF-inducible promotor. The reporter cell line was developed from human monocytic leukemia THP-1 cells.
as §1, §2

[3] = system: CXCL10 secretion by CT26 cells; test: RIG-I dependent CXCL10 secretion by CT26 colon carcinoma cells (ELISA); format: cell-based, murine; conditions: 24 h
Method: (§3) The CT26 murine colon carcinoma cell line (ATCC) was used to evaluate the induction of CXCL10 secretion. CXCL10 is an important chemokine in tumor immune biology that recruits tumor-specific T cells to the tumor. To confirm that compound-mediated CXCL10 production was RIG-I specific, RIG-I deficient CT2-RIG-1−/− cells were generated by Kineta using CRISPR technology.
(§4) CT26 cells were seeded at a density of 1×10^4 cells per well on a 96-well tissue culture plate in 100 μL of cell culture and cells were incubated at 37° C. and 5% CO2 for 24 hr. Next, CT26 cells were treated with compounds at the indicated concentrations. CXCL10 was quantified by ELISA from supernatants taken 24 h after compound stimulation by use of the CXCL10 DuoSet ELISA kit (Cat # DY466, R&D, Minneapolis, Minn., USA) according to the manufacturer's instructions.
(§5) CXCL10 secretion by CT26 cells in response to compounds (in an amount of 5 to 20 μM) of the present disclosure is shown in Table 8. The compound-induced CXCL10 production was RIG-I dependent, since none of the compounds mediated CXCL10 secretion in RIG-I deficient CT26 RIG-1−/− cells. The compounds (10 μM, *20 μM, **5 μM) are indicated in the table as follows: “−” indicates less than 100 pg/mL; “+” indicates 100-199 pg/mL; “++” indicates 200-399 pg/mL; “+++” indicates 400-799 pg/mL; “++++” indicates 800 to 1599 pg/mL; “+++++” indicates greater than or equal to 1600 pg/ml.

[4] = system: RIG-I deficient CT26 RIG-1−/− cells; test: CXCL10 secretion in RIG-I deficient CT26 RIG-1−/− cells (ELISA); format: cell-based, murine; conditions: 24 h
Method: as §3, §4, §5

SMILES | fold induction at 10 µM [1] | fold induction at 10 µM [2] | CXCL10 secretion by CT26 cells ([3]; 10 μM compound) | CXCL10 secretion by CT26 RIG-I −/− cells ([4]; 10 μM compound) | fold induction at 20 µM ([1]; 20 μM compound (*)) | fold induction at 20 µM ([2]; 20 μM compound (*)) | CXCL10 secretion by CT26 cells ([3]; 5 μM compound (**)) | CXCL10 secretion by CT26 RIG-I −/− cells ([4]; 5 μM compound (**))
CS(=O)(=O)c1ccc2nc(NC(=O)c3ccc4ccccc4c3)sc2c1 [Example 1, N-(6-methanesulfonyl-1,3-benzothiazol-2-yl)naphthalene-2-carboxamide] | < 2.4 | 10 to 19 | ++++ (“++++” indicates 800 to 1599 pg/mL) | − (“−” indicates less than 100 pg/mL) |  |  |  | 
COC(=O)c1ccc2nc(NC(=O)c3ccc4ccccc4c3)sc2c1 [Example 2, methyl 2-(naphthalene-2-amido)-1,3-benzothiazole-6-carboxylate] | < 2.4 | ≥ 40 | ++++ (“++++” indicates 800 to 1599 pg/mL) | − (“−” indicates less than 100 pg/mL) |  |  |  | 
O=C(Nc1nc2ccc(S(=O)(=O)N3CCOCC3)cc2s1)c1ccc2ccccc2c1 [Example 3, N-[6-(morpholine-4-sulfonyl)-1,3-benzothiazol-2-yl]naphthalene-2-carboxamide] | < 2.4 | 10 to 19 | +++ (“+++” indicates 400-799 pg/mL) | − (“−” indicates less than 100 pg/mL) |  |  |  | 
O=C(Nc1nc2ccc(SC(F)F)cc2s1)c1ccc2ccccc2c1 [Example 4, N-{6-[(difluoromethyl)sulfanyl]-1,3-benzothiazol-2-yl}naphthalene-2-carboxamide] | < 2.4 | ≥ 40 | ++++ (“++++” indicates 800 to 1599 pg/mL) | − (“−” indicates less than 100 pg/mL) |  |  |  | 
O=C(Nc1nc2ccc(OCC(F)(F)F)cc2s1)c1ccc2ccccc2c1 [Example 5, N-[6-(2,2,2-trifluoroethoxy)-1,3-benzothiazol-2-yl]naphthalene-2-carboxamide] | < 2.4 | 2.4 to 4.9 | +++ (“+++” indicates 400-799 pg/mL) | − (“−” indicates less than 100 pg/mL) |  |  |  | 
O=C(Nc1ccc2nc(NC(=O)c3ccc4ccccc4c3)sc2c1)c1ccccc1 [Example 6, N-(6-benzamido-1,3-benzothiazol-2-yl)naphthalene-2-carboxamide] | < 2.4 | 20 to 39 | ++ (“++” indicates 200-399 pg/mL) | − (“−” indicates less than 100 pg/mL) |  |  |  | 
CS(=O)(=O)Nc1ccc2nc(NC(=O)c3ccc4ccccc4c3)sc2c1 [Example 7, N-(6-methanesulfonamido-1,3-benzothiazol-2-yl)naphthalene-2-carboxamide] | < 2.4 | 20 to 39 | ++ (“++” indicates 200-399 pg/mL) | − (“−” indicates less than 100 pg/mL) |  |  |  | 
O=C(Nc1nc2ccc(NC(=O)C3CCCCC3)cc2s1)c1ccc2ccccc2c1 [Example 8, N-(6-cyclohexaneamido-1,3-benzothiazol-2-yl)naphthalene-2-carboxamide] | < 2.4 | 10 to 19 | ++++ (“++++” indicates 800 to 1599 pg/mL) | − (“−” indicates less than 100 pg/mL) |  |  |  | 
O=C(Nc1nc2ccc(SC(F)(F)F)cc2s1)c1ccc2ccccc2c1 [Example 9, N-{6-[(trifluoromethyl)sulfanyl]-1,3-benzothiazol-2-yl}naphthalene-2-carboxamide] | < 2.4 | 5 to 9.9 | +++ (“+++” indicates 400-799 pg/mL) | − (“−” indicates less than 100 pg/mL) |  |  |  | 
O=C(Nc1nc2ccc(-c3nc4ccccc4[nH]3)cc2s1)c1ccc2ccccc2c1 [Example 10, N-[6-(1H-1,3-benzodiazol-2-yl)-1,3-benzothiazol-2-yl]naphthalene-2-carboxamide] | < 2.4 | 5 to 9.9 | +++ (“+++” indicates 400-799 pg/mL) | − (“−” indicates less than 100 pg/mL) |  |  |  | 
O=C(Nc1nc2cccc(C(F)(F)F)c2s1)c1ccc2ccccc2c1 [Example 11, N-[7-(trifluoromethyl)-1,3-benzothiazol-2-yl]naphthalene-2-carboxamide] | < 2.4 | 10 to 19 | ++ (“++” indicates 200-399 pg/mL) | − (“−” indicates less than 100 pg/mL) |  |  |  | 
O=C(Cc1ccc2nc(NC(=O)c3ccc4ccccc4c3)sc2c1)NC1CC1 [Example 12, N-{6-[(cyclopropyl-carbamoyl)methyl]-1,3-benzothiazol-2-yl}naphthalene-2-carboxamide] |  |  | +++ (“+++” indicates 400-799 pg/mL) | − (“−” indicates less than 100 pg/mL) | < 2.4 | 2.4 to 4.9 |  | 
O=C(Nc1nc2ccc(S(=O)(=O)N3CCCC3)cc2s1)c1cc2ccccc2cc1OCCN1CCC(F)(F)CC1 [Example 79, 3-[2-(4,4-difluoropiperidin-1-yl)ethoxy]-N-[6-(pyrrolidine-1-sulfonyl)-1,3-benzothiazol-2-yl]naphthalene-2-carboxamide] |  |  |  |  |  |  | +** (“+” indicates 100-199 pg/mL) | −** (“−” indicates less than 100 pg/mL)
O=C(Nc1cc2ccc(S(=O)(=O)N3CCC3)cc2s1)c1cc2ccccc2cc1OCCCCN1CCOCC1 [Example 86, N-(6-(azetidin-1-ylsulfonyl)benzo[b]thiophen-2-yl)-3-(4-morpholinobutoxy)-2-naphthamide] | < 2.4 | 20 to 39 |  |  |  |  |  | 
COCC1CN(CCOc2cc3ccccc3cc2C(=O)Nc2nc3ccc(S(=O)(=O)N4CCCC4)cc3s2)CCO1 (centres unmarked) [Example 87, 3-{2-[2-(methoxymethyl)morpholin-4-yl]ethoxy}-N-[6-(pyrrolidine-1-sulfonyl)-1,3-benzothiazol-2-yl]naphthalene-2-carboxamide] | < 2.4 | 20 to 39 |  |  |  |  |  | 
O=C(Nc1nc2ccc(S(=O)(=O)N3CCCC3)cc2s1)c1cc2ccccc2cc1OCCN1CC2CCC1CO2 (centres unmarked) [Example 88, 3-(2-{2-oxa-5-azabicyclo[2.2.2]octan-5-yl}ethoxy)-N-[6-(pyrrolidine-1-sulfonyl)-1,3-benzothiazol-2-yl]naphthalene-2-carboxamide] | < 2.4 | 20 to 39 |  |  |  |  |  | 
O=C(Nc1nc2ccc(S(=O)(=O)N3CCCC3)cc2s1)c1cc2ccccc2cc1OCCN1CC2CC(C1)O2 [Example 89, 3-(2-{6-oxa-3-azabicyclo[3.1.1]heptan-3-yl}ethoxy)-N-[6-(pyrrolidine-1-sulfonyl)-1,3-benzothiazol-2-yl]naphthalene-2-carboxamide] | < 2.4 | 10 to 19 |  |  |  |  |  | 
O=C(Nc1nc2ccc(S(=O)(=O)N3CCCC3)cc2s1)c1cc2ccccc2cc1OCCN1C[C@H]2C[C@@H]1CO2 [Example 90] | < 2.4 | 20 to 39 |  |  |  |  |  | 
O=C(Nc1nc2ccc(S(=O)(=O)N3CCCC3)cc2s1)c1cc2c(cc1OCCN1CCOCC1)CCC2 [Example 91, 6-[2-(morpholin-4-yl)ethoxy]-N-[6-(pyrrolidine-1-sulfonyl)-1,3-benzothiazol-2-yl]-2,3-dihydro-1H-indene-5-carboxamide] | < 2.4 | 10 to 19 |  |  |  |  |  | 
